Columns and labels:
Format in all cases: cell-based, murine
BaF3-NRASD12 = assay: Oncogenic RAS dependent cell proliferation (CellTiter Glo); conditions: Mus musculus, BaF3-NRASD12 cells, 48 hours, read-out: NRas-BaF3 IC50
Description: (§1) The BaF/3 cell line transformed with oncogenic NRAS or KRAS (BaF/3-NRASD12 or BaF/3-KRASD12) and the parental BaF/3 cells were used to measure the abilities of compounds of the invention to suppress RAS transformation (Table 5). Cells were seeded at a density of 5000 cells/well into 96-well plates. […] The background control wells to which media with no cells added and the vehicle control wells were included on each plate in triplicate. Cell viability was determined using CellTiter Glo Assay (Promega) according to manufacture's instruction with a minor modification of diluting 1 part CellTiter Glo reagent to 4 parts phosphate buffered saline (PBS) before use. The luminescence value was read out by an Envision (PerkinElmer).

BaF3-KRASD12 = assay: as above; conditions: Mus musculus, BaF3-KRASD12 cells, 48 hours, read-out: KRas-BaF3 IC50
Description: as §1

BaF3-TEL-INSR = target: T1, BaF3-TEL-INSR (Homo sapiens, UniProt P06213); assay: Antiproliferative activity, kinase-dependent Ba/F3 cells (MTT/MTS); conditions: 48 hours, cell viability, read-out: Tel-INSR IC50
T1 construct: fused on or other part: P41212 (Transcription factor ETV6)
Description: (§2) Following up on the kinome data, the ability of compounds disclosed in the present invention to inhibit proliferation of cells that are dependent on selected protein kinases was tested. […] In addition, compounds were assayed to measure their capacity to inhibit TIE1, LYN, EML4-ALK, INSR and HCK kinases.
(§3) The murine cell line used is the BaF/3 cell line transformed with BCR/ABL cDNA (BaF/3-p210) or BCR/ABL-T315I mutant (Ba/F3-p210-T315I). These cells are maintained in RPMI/10% fetal calf serum (RPMI/FCS) supplemented with penicillin 50 μg/mL, streptomycin 50 μg/mL and L-glutamine […]. Untransformed BaF/3 cells (Wt-BaF/3) are similarly maintained with the addition of 15% of WEHI conditioned medium as a source of IL3.
(§4) Cells were seeded at a density of 20,000 cells/well into 96-well plates.
(§5) The background control wells to which media with no cells added and the vehicle control wells were included on each plate in triplicate. Cell viability was determined using MTT (Sigma, St. Louis, Mo., USA) and MTS (Promega, Madison, Wis., USA), according to the manufacturer's instructions. Results were analyzed using GraphPad Prism 5.0 (GraphPad Software, San Diego, Calif.) and IC50 values were calculated from cell viability dose-response curves and defined as the concentration of compound needed to reduce cell viability to 50% of a vehicle control (DMSO) (Table 3).
(§6) Cell proliferation assays of compounds of the invention against TIE1, LYN, EML4-ALK, INSR and Hck were conducted using identical methods as described above for BCR/ABL, except that BaF3-TEL-TIE1, BaF3-TEL-LYN, BaF3-EML4-ALK, BaF3-TEL-INSR, and BaF3-TEL-HCK are used instead of BaF3-BCR/ABL (Table 3 and 4).

BaF3-TEL-TIE1 = target: T2, BaF3-TEL-TIE1 (Homo sapiens, UniProt P35590); assay: as above; conditions: 48 hours, cell viability, read-out: tel-TIE1 IC50
T2 construct: fused on or other part: P41212 (Transcription factor ETV6)
Description: as §2, §3, §4, §5, §6

BaF3-TEL-LYN = target: T3, BaF3-TEL-LYN (Homo sapiens, UniProt P07948); assay: as above; conditions: 48 hours, cell viability, read-out: tel-LYN IC50
T3 construct: fused on or other part: P41212 (Transcription factor ETV6)
Description: as §2, §3, §4, §5, §6

BaF3-TEL-HCK = target: T4, BaF3-TEL-HCK (Homo sapiens, UniProt P08631); assay: as above; conditions: 48 hours, cell viability, read-out: Tel-HCK IC50
T4 construct: fused on or other part: P41212 (Transcription factor ETV6)
Description: as §2, §3, §4, §5, §6

BaF3-EML4-ALK = target: T5, BaF3-EML4-ALK (Homo sapiens, UniProt Q9UM73); assay: as above; conditions: 48 hours, cell viability, read-out: EML4-ALK IC50
T5 construct: fused on or other part: Q9HC35 (Echinoderm microtubule-associated protein-like 4)
Description: as §2, §3, §4, §5, §6

BaF3-BCR/ABL-T315I = target: T6, BaF3-BCR/ABL-T315I (Homo sapiens, UniProt P00519, T315I, cells depend on it); assay: as above; conditions: 48 hours, cell viability, read-out: BCR/ABL T315I IC50
T6 construct: fused on or other part: P11274 (Breakpoint cluster region protein)
Description: as §2, §3, §4, §5

BaF3-BCR/ABL = target: T7, BaF3-BCR/ABL (Homo sapiens, UniProt P00519); assay: as above; conditions: 48 hours, cell viability, read-out: BCR/ABL IC50
T7 construct: fused on or other part: P11274 (Breakpoint cluster region protein)
Description: as §2, §3, §4, §5

Wt-BaF3 = assay: Parental Ba/F3 cell proliferation (CellTiter Glo); conditions: Mus musculus, parental BaF/3 cells, 48 hours
Description: as §3, §1

T5 sequence (Q9UM73 whole entry, change not shown, the tested form may be a part): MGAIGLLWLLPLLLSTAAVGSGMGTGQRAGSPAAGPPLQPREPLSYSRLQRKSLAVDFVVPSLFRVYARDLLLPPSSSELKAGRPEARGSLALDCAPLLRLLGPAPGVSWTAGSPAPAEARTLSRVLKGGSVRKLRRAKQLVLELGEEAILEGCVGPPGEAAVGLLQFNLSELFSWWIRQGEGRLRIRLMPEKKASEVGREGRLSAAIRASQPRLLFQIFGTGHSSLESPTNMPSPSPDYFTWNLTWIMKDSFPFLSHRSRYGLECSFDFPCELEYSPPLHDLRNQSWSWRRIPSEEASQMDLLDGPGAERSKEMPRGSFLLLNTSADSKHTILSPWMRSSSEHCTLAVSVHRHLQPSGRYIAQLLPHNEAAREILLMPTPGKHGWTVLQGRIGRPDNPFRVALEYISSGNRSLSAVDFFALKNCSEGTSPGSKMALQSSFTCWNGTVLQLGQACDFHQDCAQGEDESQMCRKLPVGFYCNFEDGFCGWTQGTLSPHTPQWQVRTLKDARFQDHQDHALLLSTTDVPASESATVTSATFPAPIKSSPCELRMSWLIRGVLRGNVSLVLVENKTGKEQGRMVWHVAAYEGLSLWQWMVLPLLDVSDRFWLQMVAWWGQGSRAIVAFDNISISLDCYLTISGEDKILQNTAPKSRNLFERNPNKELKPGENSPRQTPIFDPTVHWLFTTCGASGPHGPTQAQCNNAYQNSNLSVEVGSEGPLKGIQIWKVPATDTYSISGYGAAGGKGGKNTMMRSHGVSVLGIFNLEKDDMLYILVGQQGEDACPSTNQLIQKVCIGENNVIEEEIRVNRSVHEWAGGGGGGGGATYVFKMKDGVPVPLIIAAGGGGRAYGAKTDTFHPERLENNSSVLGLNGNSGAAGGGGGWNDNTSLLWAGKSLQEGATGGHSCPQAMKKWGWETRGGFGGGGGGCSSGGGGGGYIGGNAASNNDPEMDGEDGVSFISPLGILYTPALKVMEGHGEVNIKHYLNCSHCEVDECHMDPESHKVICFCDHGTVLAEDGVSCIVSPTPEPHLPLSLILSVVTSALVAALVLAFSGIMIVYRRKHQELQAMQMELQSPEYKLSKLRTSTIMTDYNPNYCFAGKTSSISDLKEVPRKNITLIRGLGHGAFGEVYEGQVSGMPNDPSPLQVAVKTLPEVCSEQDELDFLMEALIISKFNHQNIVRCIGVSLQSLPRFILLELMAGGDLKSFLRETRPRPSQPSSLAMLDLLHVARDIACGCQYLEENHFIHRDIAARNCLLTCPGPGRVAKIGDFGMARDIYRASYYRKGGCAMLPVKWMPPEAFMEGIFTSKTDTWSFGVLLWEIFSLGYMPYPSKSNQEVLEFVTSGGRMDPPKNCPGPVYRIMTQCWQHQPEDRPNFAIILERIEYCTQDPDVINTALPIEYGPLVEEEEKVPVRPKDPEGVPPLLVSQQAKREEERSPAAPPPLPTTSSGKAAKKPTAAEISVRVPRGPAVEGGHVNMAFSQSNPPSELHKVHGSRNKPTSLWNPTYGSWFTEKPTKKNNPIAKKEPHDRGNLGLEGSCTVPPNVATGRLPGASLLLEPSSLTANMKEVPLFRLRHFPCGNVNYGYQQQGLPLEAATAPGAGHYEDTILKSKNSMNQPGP
T4 sequence (P08631 whole entry, change not shown, the tested form may be a part): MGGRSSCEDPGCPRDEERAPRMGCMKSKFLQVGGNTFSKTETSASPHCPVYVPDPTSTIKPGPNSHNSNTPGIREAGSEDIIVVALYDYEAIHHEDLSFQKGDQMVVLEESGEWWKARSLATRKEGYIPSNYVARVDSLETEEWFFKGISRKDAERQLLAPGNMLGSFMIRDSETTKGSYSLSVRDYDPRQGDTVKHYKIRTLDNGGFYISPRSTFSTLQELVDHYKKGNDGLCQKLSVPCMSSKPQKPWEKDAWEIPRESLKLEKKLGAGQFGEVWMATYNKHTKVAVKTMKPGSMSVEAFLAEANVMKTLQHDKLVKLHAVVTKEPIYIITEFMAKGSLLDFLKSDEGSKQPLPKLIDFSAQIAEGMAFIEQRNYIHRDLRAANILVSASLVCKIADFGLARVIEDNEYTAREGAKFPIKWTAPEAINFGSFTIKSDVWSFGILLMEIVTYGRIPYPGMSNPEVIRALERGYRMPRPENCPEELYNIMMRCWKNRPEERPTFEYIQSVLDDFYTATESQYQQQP
T3 sequence (P07948 whole entry, change not shown, the tested form may be a part): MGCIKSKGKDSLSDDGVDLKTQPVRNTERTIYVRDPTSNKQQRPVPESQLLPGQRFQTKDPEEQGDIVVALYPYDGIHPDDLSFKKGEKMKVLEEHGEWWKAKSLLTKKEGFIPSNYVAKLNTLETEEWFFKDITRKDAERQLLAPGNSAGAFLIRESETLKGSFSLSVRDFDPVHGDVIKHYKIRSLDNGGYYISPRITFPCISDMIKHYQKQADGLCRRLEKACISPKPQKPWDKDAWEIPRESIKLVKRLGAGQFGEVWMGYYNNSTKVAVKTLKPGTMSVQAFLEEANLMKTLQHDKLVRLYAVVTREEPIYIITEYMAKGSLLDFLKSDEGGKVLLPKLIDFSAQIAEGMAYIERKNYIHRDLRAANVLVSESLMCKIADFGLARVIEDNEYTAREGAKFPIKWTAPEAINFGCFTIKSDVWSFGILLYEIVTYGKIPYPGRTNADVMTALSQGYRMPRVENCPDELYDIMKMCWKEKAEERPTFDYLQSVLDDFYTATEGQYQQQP
T2 sequence (P35590 whole entry, change not shown, the tested form may be a part): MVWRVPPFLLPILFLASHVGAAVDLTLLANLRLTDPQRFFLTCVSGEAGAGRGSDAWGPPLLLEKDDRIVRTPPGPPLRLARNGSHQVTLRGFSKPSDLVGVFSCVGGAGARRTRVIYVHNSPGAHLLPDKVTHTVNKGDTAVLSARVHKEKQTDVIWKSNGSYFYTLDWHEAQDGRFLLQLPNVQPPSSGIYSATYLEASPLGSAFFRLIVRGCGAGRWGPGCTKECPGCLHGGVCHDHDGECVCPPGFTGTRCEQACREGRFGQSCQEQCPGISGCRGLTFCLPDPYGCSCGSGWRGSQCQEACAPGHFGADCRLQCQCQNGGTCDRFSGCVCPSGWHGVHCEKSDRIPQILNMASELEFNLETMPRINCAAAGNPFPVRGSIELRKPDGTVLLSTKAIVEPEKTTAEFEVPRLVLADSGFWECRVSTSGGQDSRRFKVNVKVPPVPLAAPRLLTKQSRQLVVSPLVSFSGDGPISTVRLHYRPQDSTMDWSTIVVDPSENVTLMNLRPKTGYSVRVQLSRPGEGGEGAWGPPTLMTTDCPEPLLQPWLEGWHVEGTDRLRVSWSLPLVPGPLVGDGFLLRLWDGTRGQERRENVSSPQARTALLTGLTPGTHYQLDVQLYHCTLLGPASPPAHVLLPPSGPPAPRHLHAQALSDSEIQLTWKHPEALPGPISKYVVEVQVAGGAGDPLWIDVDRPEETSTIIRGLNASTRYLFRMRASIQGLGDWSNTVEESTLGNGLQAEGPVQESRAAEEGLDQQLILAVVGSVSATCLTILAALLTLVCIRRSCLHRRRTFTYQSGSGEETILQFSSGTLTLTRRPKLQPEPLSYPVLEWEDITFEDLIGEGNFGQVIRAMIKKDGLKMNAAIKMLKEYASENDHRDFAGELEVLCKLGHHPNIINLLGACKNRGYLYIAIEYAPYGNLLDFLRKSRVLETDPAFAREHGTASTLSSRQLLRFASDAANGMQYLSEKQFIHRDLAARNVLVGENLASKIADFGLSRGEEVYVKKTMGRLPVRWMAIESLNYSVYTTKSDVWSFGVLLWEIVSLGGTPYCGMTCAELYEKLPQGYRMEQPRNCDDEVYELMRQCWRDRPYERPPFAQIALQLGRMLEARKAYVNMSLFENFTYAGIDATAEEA

IC50 (BaF3-NRASD12)	IC50 (BaF3-KRASD12)	Compound	GI50 (BaF3-TEL-INSR)	GI50 (BaF3-TEL-TIE1)	GI50 (BaF3-TEL-LYN)	GI50 (BaF3-TEL-HCK)	GI50 (BaF3-EML4-ALK)	GI50 (BaF3-BCR/ABL-T315I)	GI50 (BaF3-BCR/ABL)	IC50 (Wt-BaF3)
1500 nM	2110 nM	CCN1CN(c2cc(NC(=O)c3cccc(C(F)(F)F)c3)ccc2C)Cc2cnc(Nc3ccc(C)nc3)nc21 [IB-1, N-(3-(1-ethyl-7-((6-methylpyridin-3-yl)amino)-1,4-dihydropyrimido[4,5-d]pyrimidin-3(2H)-yl)-4-methylphenyl)-3-(trifluoromethyl)benzamide]	3230 nM	1290 nM	1260 nM	327 nM	2640 nM	881 nM	5.96 nM	4840 nM
404 nM	388 nM	Cc1ccc(NC(=O)c2cccc(C(F)(F)F)c2)cc1N1Cc2cnc(Nc3ccc(N4CCOCC4)nc3)nc2N(C)C1 [IA-15, N-(4-methyl-3-(1-methyl-7-((6-morpholinopyridin-3-yl)amino)-1,4-dihydropyrimido[4,5-d]pyrimidin-3(2H)-yl)phenyl)-3-(trifluoromethyl)benzamide]	902 nM	355 nM	264 nM	680 nM	1160 nM	132 nM	4.18 nM	1770 nM
1020 nM	1490 nM	Cc1cc(Nc2ncc3c(n2)N(C)CN(c2cc(NC(=O)c4cccc(C(F)(F)F)c4)ccc2C)C3)n(C)n1 [IA-11, N-(3-(7-((1,3-dimethyl-1H-pyrazol-5-yl)amino)-1-methyl-1,4-dihydropyrimido[4,5-d]pyrimidin-3(2H)-yl)-4-methylphenyl)-3-(trifluoromethyl)benzamide]	2280 nM	736 nM	927 nM	1390 nM	2220 nM	1760 nM	7.96 nM	13500 nM
501 nM	402 nM	Cc1ccc(NC(=O)c2cccc(C(F)(F)F)c2)cc1N1Cc2cnc(Nc3ccc(N4CCC(O)CC4)nc3)nc2N(C)C1 [IA-13, N-(3-(7-((6-(4-hydroxypiperidin-1-yl)pyridin-3-yl)amino)-1-methyl-1,4-dihydropyrimido[4,5-d]pyrimidin-3(2H)-yl)-4-methylphenyl)-3-(trifluoromethyl)benzamide]	320 nM	289 nM	132 nM	192 nM	1870 nM	226 nM	5.85 nM	2340 nM
